Results: ChEMBL document CHEMBL4483862, “Open-source discovery of chemical leads for next-generation chemoprotective antimalarials” (2018)

Test system: Plasmodium berghei
Assay: Luciferase/luciferin-expressing antifolate-resistant parasites were used to infect a culture of HepG2 cells that were pre-incubated with compounds. Infected hepatocytes emit light due to the luciferase reaction. Assay results are presented as the percent inhibition of light emission compared to control. […]
Assay type: functional
Conditions: sporozoite; for IC90: read-out: LUCIFERASE INFECTION ASSAY - IC90
[1] = read-out: LUCIFERASE INFECTION ASSAY - IC50

Cc1cc(C2=NNC(=NC3CC3)SC2)c(C)n1-c1ccccn1
IC50 (FFLUC_HILL_SLOPE 1.22, FFLUC_R_SQUARED 0.875, PBLUC_HILL_SLOPE 1.09, PBLUC_R_SQUARED 0.799, read-out: LUCIFERASE INFECTION ASSAY - IC50): 0.213 µM
IC90: 1.61 µM

COc1cccc(-c2cnn3ccc(Nc4ccc(OC)nc4)nc23)c1
IC50 (HEPG2TOX_HILL_SLOPE 3.92, HEPG2TOX_R_SQUARED 0.974, PBLUC_HILL_SLOPE 24.4, PBLUC_R_SQUARED 0.48, read-out: LUCIFERASE INFECTION ASSAY - IC50): 3.53 µM
IC90: 3.86 µM

O=C1/C(=N\O)c2ccccc2N1Cc1cc(C(F)(F)F)cc(C(F)(F)F)c1
IC50 (HEPG2TOX_HILL_SLOPE 1.63, HEPG2TOX_R_SQUARED 0.96, PBLUC_HILL_SLOPE 1.81, PBLUC_R_SQUARED 0.672, read-out: LUCIFERASE INFECTION ASSAY - IC50): 0.78 µM
IC90: 2.62 µM

C/C(=N\OCc1ccccc1)c1cc(-c2ccccc2)c(C(F)(F)F)s1
IC50 (PBLUC_HILL_SLOPE 1.7, PBLUC_R_SQUARED 0.604, read-out: LUCIFERASE INFECTION ASSAY - IC50): 4.91 µM
IC90: > 8.79 µM

Cn1c(N)c(C(=O)COC(=O)c2c3c(nc4ccccc24)/C(=C/c2ccc(O)cc2)CCC3)c(=O)n(C)c1=O
IC50 [1]: 2.66 µM
IC90: 6.45 µM

N#C/C(=N\Nc1cccc(C(F)(F)F)c1)C(=O)C1CC1
IC50 (HEPG2TOX_HILL_SLOPE 1.67, HEPG2TOX_R_SQUARED 0.925, PBLUC_HILL_SLOPE 4.09, PBLUC_R_SQUARED 0.467, read-out: LUCIFERASE INFECTION ASSAY - IC50): 6.27 µM
IC90: 10.7 µM

O=C(Nc1ccccc1Sc1ncc([N+](=O)[O-])s1)c1cccs1
IC50 (FFLUC_HILL_SLOPE 1.44, FFLUC_R_SQUARED 0.479, read-out: LUCIFERASE INFECTION ASSAY - IC50): > 9.08 µM
IC90: > 9.08 µM

N/C(=N\NC(=O)c1cccc(C(F)(F)F)c1)c1ccc(C(F)(F)F)cn1
IC50 (HEPG2TOX_HILL_SLOPE 1.95, HEPG2TOX_R_SQUARED 0.695, PBLUC_HILL_SLOPE 3.85, PBLUC_R_SQUARED 0.803, read-out: LUCIFERASE INFECTION ASSAY - IC50): 0.802 µM
IC90: 1.42 µM

CC(C)(C)NC(=S)N/N=C/c1cc(I)cc(I)c1O
IC50 (HEPG2TOX_HILL_SLOPE 8.65, HEPG2TOX_R_SQUARED 0.588, PBLUC_HILL_SLOPE 9.82, PBLUC_R_SQUARED 0.5, read-out: LUCIFERASE INFECTION ASSAY - IC50): 3.38 µM
IC90: 4.23 µM

NS(=O)(=O)c1ccc(CCNc2nn3c(-c4cccc(OC(F)(F)F)c4)cnc3s2)cc1
IC50 (FFLUC_HILL_SLOPE 3.32, FFLUC_R_SQUARED 0.88, HEPG2TOX_HILL_SLOPE 6.82, HEPG2TOX_R_SQUARED 0.258, PBLUC_HILL_SLOPE 3.52, PBLUC_R_SQUARED 0.409, read-out: LUCIFERASE INFECTION ASSAY - IC50): 4 µM
IC90: > 6.83 µM

CC(=O)c1cccc(NC(=O)Nc2ccc3nc(-c4cccc(C(F)(F)F)c4)nn3c2)c1
IC50 (HEPG2TOX_HILL_SLOPE 8.68, HEPG2TOX_R_SQUARED 0.208, PBLUC_HILL_SLOPE 3.77, PBLUC_R_SQUARED 0.543, read-out: LUCIFERASE INFECTION ASSAY - IC50): 5.11 µM
IC90: 9.17 µM

Cc1cc(N2CCN(c3cnn(-c4nc5ccccc5[nH]4)c(=O)c3Cl)CC2)nc(C(C)C)n1
IC50 (HEPG2TOX_HILL_SLOPE 0.0256, HEPG2TOX_R_SQUARED 0.0179, PBLUC_HILL_SLOPE 3.18, PBLUC_R_SQUARED 0.351, read-out: LUCIFERASE INFECTION ASSAY - IC50): 3.68 µM
IC90: 7.33 µM

O=c1c(Cl)c(Cl)cnn1-c1ccc(S(=O)(=O)NCCCOCC2CC2)cc1
IC50 (HEPG2TOX_HILL_SLOPE 15.7, HEPG2TOX_R_SQUARED 0.58, PBLUC_HILL_SLOPE 8.81, PBLUC_R_SQUARED 0.0863, read-out: LUCIFERASE INFECTION ASSAY - IC50): 3.62 µM
IC90: 4.65 µM

Cc1nc(SCc2ccc(C(F)(F)F)cc2)n(C)c(=O)c1Oc1ccc(F)cc1
IC50 [1]: > 7.78 µM
IC90: > 7.78 µM

O=C(Nc1ccc(SC(F)(F)F)cc1)Nc1ccc(Oc2ccc(Cl)cc2Cl)nc1
IC50 (FFLUC_HILL_SLOPE 4.22, FFLUC_R_SQUARED 0.441, HEPG2TOX_HILL_SLOPE 15.8, HEPG2TOX_R_SQUARED 0.933, PBLUC_HILL_SLOPE 1.66, PBLUC_R_SQUARED 0.482, read-out: LUCIFERASE INFECTION ASSAY - IC50): 1.59 µM
IC90: 5.98 µM

N#CC(C#N)=NNc1cccc(Cl)c1 [CARBONYL CYANIDE M-CHLOROPHENYLHYDRAZONE]
IC50 [1]: 3.84 µM
IC90: 13.9 µM

O=C(CN1CCN(C(=O)/C=C/c2sc3ccccc3c2Cl)CC1)NC1CC1
IC50 (PBLUC_HILL_SLOPE 3.79, PBLUC_R_SQUARED 0.282, read-out: LUCIFERASE INFECTION ASSAY - IC50): 4.87 µM
IC90: 8.7 µM

COc1ccc(-c2nnc(SCc3csc(-c4ccccc4)n3)n2CCc2ccccc2)cc1
IC50 (FFLUC_HILL_SLOPE 7.96, FFLUC_R_SQUARED 0.134, read-out: LUCIFERASE INFECTION ASSAY - IC50): > 10 µM
IC90: > 10 µM

COc1cc(/C=C2\C(=O)c3ccccc3S(=O)(=O)N2C(C)C)ccc1O
IC50 (FFLUC_HILL_SLOPE 10, FFLUC_R_SQUARED 0.0898, HEPG2TOX_HILL_SLOPE 4.33, HEPG2TOX_R_SQUARED 0.977, PBLUC_HILL_SLOPE 2.02, PBLUC_R_SQUARED 0.77, read-out: LUCIFERASE INFECTION ASSAY - IC50): 0.957 µM
IC90: 2.85 µM

COc1ccc(S(=O)(=O)Nc2ccccc2Sc2ncnc3scc(C)c23)cc1
IC50 [1]: > 7.44 µM
IC90: > 7.44 µM

CCOc1ccc(Nc2nc3cc(S(=O)(=O)N(CC)CC)ccc3o2)cc1
IC50 (HEPG2TOX_HILL_SLOPE 0.167, HEPG2TOX_R_SQUARED 0.162, read-out: LUCIFERASE INFECTION ASSAY - IC50): > 10 µM
IC90: > 10 µM

COc1cccc(Nc2nccc3nc(-c4cccc(OC(F)(F)F)c4)[nH]c23)c1
IC50 (PBLUC_HILL_SLOPE 2.87, PBLUC_R_SQUARED 0.483, read-out: LUCIFERASE INFECTION ASSAY - IC50): 5.1 µM
IC90: > 10 µM

Cc1nc2nc(C(F)(F)F)nn2c(C)c1CCC(=O)NCC(c1cccs1)N1CCC(C)CC1 (stereo not drawn)
IC50 (PBLUC_HILL_SLOPE 1.88, PBLUC_R_SQUARED 0.575, read-out: LUCIFERASE INFECTION ASSAY - IC50): 6.51 µM
IC90: > 10 µM

COc1cccc(-c2nc3ccnc(NCCc4ccccc4)c3[nH]2)c1
IC50 (PBLUC_HILL_SLOPE 2.45, PBLUC_R_SQUARED 0.513, read-out: LUCIFERASE INFECTION ASSAY - IC50): 3.11 µM
IC90: 7.63 µM

c1ccc(-c2csc3ncnc(Sc4ccc5nnnn5n4)c23)cc1
IC50 (HEPG2TOX_HILL_SLOPE 2.04, HEPG2TOX_R_SQUARED 0.855, PBLUC_HILL_SLOPE 0.945, PBLUC_R_SQUARED 0.512, read-out: LUCIFERASE INFECTION ASSAY - IC50): 7.55 µM
IC90: > 10 µM

O=C(Nc1ccc(-c2csc(NC(=O)c3c[nH]nc3-c3ccccc3)n2)cc1)c1ccccc1
IC50 [1]: 2.42 µM
IC90: 7.36 µM

COc1ccc(Nc2nccc3c2cc(-c2ccccc2OC)n3C)cn1
IC50 (PBLUC_HILL_SLOPE 9.12, PBLUC_R_SQUARED 0.328, read-out: LUCIFERASE INFECTION ASSAY - IC50): 3.52 µM
IC90: 4.48 µM

COc1ccccc1-c1noc(CSc2nc3ccccc3c(=O)n2-c2ccc(C)cc2)n1
IC50 [1]: > 10 µM
IC90: > 10 µM

O=c1[nH]ncc(NCCCc2ccccc2)c1Cl
IC50 (HEPG2TOX_HILL_SLOPE 3.21, 1.90, HEPG2TOX_R_SQUARED 0.492, 0.980, PBLUC_HILL_SLOPE 2.78, PBLUC_R_SQUARED 0.0147, read-out: LUCIFERASE INFECTION ASSAY - IC50): 8.32 µM
IC90: > 10 µM

CCOC(=O)c1sc(N)c(C#N)c1CSc1nnnn1-c1ccccc1
IC50 (HEPG2TOX_HILL_SLOPE 0.327, HEPG2TOX_R_SQUARED 0.288, read-out: LUCIFERASE INFECTION ASSAY - IC50): > 10 µM
IC90: > 10 µM

COc1ccc(-c2cnc3cnc(-c4cccs4)cn23)cc1
IC50 (PBLUC_HILL_SLOPE 3.03, PBLUC_R_SQUARED 0.723, read-out: LUCIFERASE INFECTION ASSAY - IC50): 4.02 µM
IC90: 8.31 µM

CCN(c1ccccc1)S(=O)(=O)c1ccc(Cl)c(NC(=O)C2(c3ccc(Cl)cc3)CCCC2)c1
IC50 [1]: > 10 µM
IC90: > 10 µM

CC1(C)CC(=O)C=C(SCCS(=O)(=O)c2ccc(Cl)cc2)S1
IC50 [1]: > 8.75 µM
IC90: > 8.75 µM

COc1cc(NC(=O)COc2ccc3[nH]c4ccccc4c(=O)c3c2)c(OC)cc1Cl
IC50 [1]: 0.246 µM
IC90: 2.11 µM

N#C/C(=C\N1CCN(Cc2ccccc2)CC1)S(=O)(=O)c1ccccn1
IC50 (FFLUC_HILL_SLOPE 0.433, FFLUC_R_SQUARED 0.0165, read-out: LUCIFERASE INFECTION ASSAY - IC50): > 8.96 µM
IC90: > 8.96 µM

CNC(=O)c1ccc2n1CCN(C(=O)OCc1ccccc1)C2C (stereo not drawn)
IC50 (PBLUC_HILL_SLOPE 1.5, PBLUC_R_SQUARED 0.67, read-out: LUCIFERASE INFECTION ASSAY - IC50): 3.17 µM
IC90: > 10 µM

Cc1ccc(Cn2nc(C)cc2C(=O)Sc2ccc(Cl)cc2)cc1
IC50 (FFLUC_HILL_SLOPE 19.8, FFLUC_R_SQUARED 0.763, PBLUC_HILL_SLOPE 2.54, PBLUC_R_SQUARED 0.663, read-out: LUCIFERASE INFECTION ASSAY - IC50): 5.77 µM
IC90: > 9.25 µM

Cc1ccc(-n2c(C)cc(C(=O)COc3c(CO)cc(F)cc3CO)c2C)cc1C
IC50 (PBLUC_HILL_SLOPE 1.7, PBLUC_R_SQUARED 0.588, read-out: LUCIFERASE INFECTION ASSAY - IC50): 6.56 µM
IC90: > 10 µM

Cc1cc(C(C)(C)C)cc(C)c1CCNC(=O)c1ccc[n+]([O-])c1
IC50 [1]: > 10 µM
IC90: > 10 µM
